Results from the METLIN SMRT retention time set (Domingo-Almenara et al. 2019).

Experiment: gradient 5% acetonitrile 3 min, to 50% in 2 min, to 85% in 15 min, held 3 min, 100 µL/min
Conditions: column: Zorbax Extend-C18 2.1 x 50 mm; eluents: water / acetonitrile, 0.1% formic acid
Method in brief: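 Data were gathered over 3 months by HPLC coupled to a quadrupole time-of-flight mass spectrometer, operated in positive and negative ionization mode. Mixtures of ~100 pure standards ran on a Zorbax Extend-C18 column (2.1 × 50 mm, 1.8 μm) at 100 μL/min, with water and acetonitrile each containing 0.1% formic acid and dead and dwell volumes of 40 μL and 900 μL. Retention time was read from adduct peaks picked by computer and checked manually.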

SMILES	RP-LC retention time [s]
COc1cc(CNC(=O)C2=Cc3ccccc3OC2)cc(OC)c1OC	835
CSc1ccc(-c2noc(Cn3c(=O)n(-c4ccccc4)c(=O)c4sccc43)n2)cc1	1020
CSc1cccc(NC(=O)Nc2cccc(-c3ccc(N4CCOCC4)nn3)c2)c1	742
Cc1ccc(N2CC(c3noc(-c4ccccc4OC(F)(F)F)n3)CC2=O)cc1 (stereo not given)	819
CCN(CC)S(=O)(=O)c1cc(-c2nnc(-c3ccccc3OC)o2)ccc1Cl	1090
CNC(=O)[C@@H]1C[C@H](Oc2ccccc2)CN1C(=O)C1CC=CC1	710
CSc1ccccc1C(=O)N1CC2CC1C(=O)O2 (stereo not given)	628
COc1ccc(-n2cc(C(=O)O)c3c2C(C(F)(F)F)CC(=O)N3)c(OC)c1 (stereo not given)	731
O=C(Nc1nc(-c2ccc([N+](=O)[O-])cc2)cs1)c1ccc(COc2c(F)c(F)cc(F)c2F)o1	1190
CCCN(C(=O)c1ccc2c(c1)OCO2)c1nc(-c2ccccc2)cs1	1260
O=S(=O)(NCc1ccccc1F)c1c[nH]c2ncccc12	708
CCN1C(=O)c2cccnc2Sc2cc(CNC(=O)c3ccccc3OC)ccc21	772
CCOc1ccc(CCNC(=O)c2cc3sccc3n2CC)cc1OCC	1050
COc1ccc(-c2nc3cnccn3c2Nc2ccc(C)c(Cl)c2)cc1OC	878
O=C(Cn1cnc2c(sc3nc(-c4ccccc4)ccc32)c1=O)Nc1cc(F)cc(F)c1	1070
CCCCCCC(=O)Nc1nc(-c2ccc(C)cc2)cs1	1190
CCOC(=O)C(C)c1c(C(=O)c2ccc(C)nc2)c2ccccc2n1C (stereo not given)	1020
O=C(CSc1nnc(NC(=O)COc2ccc(Cl)cc2)s1)NCc1ccco1	768
Cc1nn2c(NC(=O)CSc3nnc4sc5ccccc5n34)csc2nc1=O	635
CCCN1C(=O)COc2ccc(-c3csc(NC(=O)c4ccc(F)cc4)n3)cc21	1060

SMILES	RP-LC retention time [s]
CCc1ccc(NC(=O)NCC2CCOCC2)cc1	732
CC(NC(=O)c1ccco1)C(=O)NCc1nn(C(C)C)c2ccccc12 (stereo not given)	712
O=C1CC(c2nc(-c3ccc4c(c3)OCO4)no2)CN1c1cccc(Cl)c1 (stereo not given)	999
Cc1ccc2c(NCc3ccc4c(c3)OCO4)c(-c3nc(C)no3)cnc2n1	1070
CN(C)S(=O)(=O)c1ccc(-c2nnc(C(=O)NCc3cccs3)o2)cc1	812
CCOc1ccccc1NC(=O)NCC(c1cccnc1)c1c[nH]c2ccccc12 (stereo not given)	684
COc1ccccc1OCC(=O)NCCN1CCN(c2ccccc2OC)CC1	574
CCCNC(=O)C1(CCO)CCN(c2ncccn2)C1 (stereo not given)	560
COc1ccc(-c2ncc3c(n2)CCN(C(=O)c2cccc(Cl)c2)C3)cc1	975
CCN(CC)Cc1nc(-c2ccc(N3CCSCC3)nc2)no1	632
C=CCN1C(=O)COc2ccc(-c3nc(NC(=O)c4ccc(C)cc4)sc3C)cc21	1100
CCCCN(Cc1ccco1)C(=O)Cn1nc(Cc2ccncc2)c2ccccc2c1=O	679
COc1cccc(CCC(=O)Nc2cc(-c3cccnc3)no2)c1	756
COc1ccc(-c2nc(-c3cn(Cc4cccc(F)c4)nn3)no2)cc1	983
O=C(Cn1cccn1)N1CC(F)(F)C[C@H]1c1nc(C2CC2)no1	723
Cc1ccn2cc(CC(=O)Nc3ccc(F)cc3)nc2c1	595
Cc1ccccc1-c1noc(Cn2c(=O)n(CCc3ccccc3)c(=O)c3sccc32)n1	1200
COC(=O)C1=CN(c2ccc(F)cc2)c2ccc(F)cc2S1(=O)=O	847
Brc1cccc(-c2nc3ccccn3c2Nc2ccc3c(c2)OCO3)c1	726
CCn1cnc2ccc(-c3noc(COc4ccccc4OC)n3)cc21	712

Further lines, results first:

RP-LC retention time [s]	SMILES
1340	Cc1ccc(-c2noc(C3CCCN3S(=O)(=O)c3cc(C)c(C)cc3C)n2)cc1 (stereo not given)
1010	Cc1cc(C)cc(S(=O)(=O)N2CCC(c3nc(C(=O)N4CCCC4)c(C)o3)CC2)c1
972	Cc1cc(C)cc(NC(=O)c2cn(-c3cc(N4CCCC4)ncn3)cn2)c1
816	O=C(Cn1nc(C(=O)N2CCOCC2)c2ccccc21)Nc1cccc(Cl)c1
862	Cc1ccc(CCNC(=O)c2ccc3c(c2)NC(=O)C2CCCCN32)cc1 (stereo not given)
571	CN(C)CCNC(=O)C1CCN(c2ccc(-c3cccs3)nn2)CC1
713	Cc1cc(Cl)ccc1S(=O)(=O)NCC1CN(C)CC12CCCCC2 (stereo not given)
1110	CCCCC(=O)N1CCN(c2nc3ccccc3n(CC(C)C)c2=O)CC1
926	O=C(COc1ccccc1)NCCS(=O)(=O)N1CCN(c2cccc(Cl)c2)CC1
798	Cc1ccc(CNC(=O)N2CCCC2c2cc(C)on2)cc1 (stereo not given)
626	Cc1cccc(CNC(=O)C2CCN(CCc3cn(C)c4ncccc34)CC2)c1
605	Cc1cccc2c(C(=O)N3CCCC3)cc(N(C)C)nc12
768	CCN1CCCn2cc(S(=O)(=O)Nc3cccc(C)c3C)cc2C1=O
805	Cc1cccc(NC(=O)C2CCCN2S(=O)(=O)c2ccc3c(c2)NC(=O)CO3)c1C (stereo not given)
664	Cc1csc(NC(=O)C2CC(=O)N(c3n[nH]c4cccc(F)c34)C2)n1 (stereo not given)
1290	COc1ccccc1-c1nc(-c2ccc(S(=O)(=O)N3CCC(C)CC3)cc2)no1
563	CCN1CCN(C(=O)CCC(=O)N2CCc3c(c(C(=O)N4CCCC4)nn3C)C2)CC1
1050	COc1ccc(NC(=O)C2CCCN(c3nccnc3Oc3ccccc3)C2)cc1Cl (stereo not given)
799	O=C(Nc1ccc(Cl)cc1)N1CCC(N2CCN(Cc3ccc(F)cc3)C(=O)C2=O)CC1
968	COc1ccc(-c2noc(C3CCCN3C(=O)c3cc(F)ccc3F)n2)cc1 (stereo not given)
689	COc1cccc2c(Nc3ccccc3C)cc(C(=O)N3CCSCC3)nc12
983	CC(C)c1ccc(-c2cc3c4nn(CC(=O)NC5CCCC5)c(=O)n4ccn3n2)cc1
685	Cc1ccc(Nc2nc(C(=O)NC3CCS(=O)(=O)C3)nc3ccccc23)cc1 (stereo not given)
837	O=C(O)C1CCN(c2nc3ccc(-c4cccs4)nc3s2)CC1
600	Cc1cc(N2CCCC2)n2nc(CN3CCN(c4ccccc4)CC3)nc2n1

RP-LC retention time [s]	SMILES
784	Cc1ccccc1Cn1cc(S(=O)(=O)N2CCOCC2)ccc1=O
685	CCOC(=O)CCNC(=O)N1CCC(N2C(=O)C3(CCCC3)C2c2scnc2C)CC1 (stereo not given)
1050	COc1ccc(-c2noc(C3CC(=O)N(c4ccc(C)c(Cl)c4)C3)n2)cc1 (stereo not given)
945	Cc1cccc(NC(=O)NC2CCN(c3cc(C)cc(C)c3)C2=O)c1 (stereo not given)
1060	CC1CCN(c2nn(CC(=O)Nc3ccc4c(c3)OCCO4)c(=O)c3ccccc23)CC1
827	Cc1nc(-c2cccc(F)c2)sc1C(=O)NC1CC1
995	Cc1nn(-c2ccccc2)c(C)c1S(=O)(=O)N1CCC(C(=O)Nc2ccccc2Cl)CC1
681	COc1ccccc1NC(=O)N1CCCC(Cn2c(C3CC3)nc3cccnc32)C1 (stereo not given)
654	Cc1csc(-c2cc(S(=O)(=O)N3CCN(C)CC3)cn2CC(=O)N2CCCCC2)n1
1360	Cc1ccc(-n2nc(C)c3sc(N4CCCC(C(=O)Nc5cc(Cl)ccc5C)C4)nc32)cc1 (stereo not given)
637	COc1ccccc1N1CCN(CCCNc2cc(=O)n(C)c(=O)n2C)CC1
788	Cc1ccc(-c2noc(C3CCCN3S(=O)(=O)c3ccc(C(C)(C)C)cc3)n2)cc1 (stereo not given)
681	CCc1ccc(C(=O)N2CCN(c3nnc4ccccn34)CC2)cc1
1110	Cc1cccc(N2CCN(S(=O)(=O)c3cc(-c4nnc(C5CCC5)o4)co3)CC2)c1
900	Cc1ccc(NC(=O)C(C)C2CCN(C(=O)Nc3ccccc3)CC2)cc1C (stereo not given)
790	Cn1nc(C(=O)NCc2ccc(F)cc2)c2c1CCN(C(=O)c1ccc(Br)o1)C2
832	O=C(CCC1CCCC1)N1CCN(c2nnc3ccc(Cl)cn23)CC1
600	COc1cccc(CNC(=O)Nc2cc3c(cc2N2CCCC2)n(C)c(=O)n3C)c1
554	Cc1ccc(NC(=O)N2CCC3(C2)c2nc[nH]c2CCN3C)cc1 (stereo not given)
548	COc1ccc(CN2CCC(C3CCNC3)CC2)c(OC)c1 (stereo not given)
852	C#CCOCC1CCN(C(=O)CSC2CCCC2)CC1
707	CCn1cc(S(=O)(=O)N2CCC(c3noc(-c4ccncc4)n3)C2)cn1 (stereo not given)
691	Cn1c(N2CCN(C(=O)c3cc4ccccc4[nH]3)CC2)cc(=O)n(C)c1=O
637	COc1ccc(NC(=O)C2CCCN(c3nnc4ccccn34)C2)cc1 (stereo not given)
888	O=C(c1ccc(OCC2CCCN2C(=O)C2CCCCC2)cc1)N1CCCC1 (stereo not given)
